Data as given in PMC9450014, “The evaluation of ADME and pharmacokinetic properties of decoquinate derivatives for the treatment of malaria” (Frontiers in Pharmacology, 2022).

Experiments:
[1] = In vivo pharmacokinetics, intravenous administration; parameters: species or system C57BL/6 mice; conditions: mice, 5 mg/kg per table footnote, 5 mg/kg; for t1/2 of DQ: DQ quantified in whole blood after iv dosing of the O-carbamate (RMB059 or RMB060); for CL of DQ / Vd of DQ: DQ quantified in whole blood after iv dosing of the O-carbamate
Method: Healthy C57BL/6 mice each weighing approximately 25 g were maintained at the University of Cape Town animal facility. Mice were housed in 27 × 21 × 28 cm cages (n = 3) under controlled environmental conditions at 22 ± 2°C, humidity of 55 ± 15% and a 12-hour light/dark cycle. Food and water were available ad libitum. Mice were acclimatised to the experimental environment for 4–5 days prior to initiating the experiments. […] The total volume of administration was 80 μL. Blood samples were collected post-dose in lithium heparin microvials via tail bleeding at predetermined intervals at 0.16, 0.5, 1, 3, 5, 8, 10, and 24 h. Samples were gently vortexed and stored at −80°C until analysis. A quantitative LC-MS/MS assay was used to determine whole-blood concentrations of RMB005, −059 and −060. Whole blood samples (20 μL) were treated with 100 μL ice cold acetonitrile containing the compound RMB073 used previously for determination of whole blood concentrations in analysis of TB-active compounds, as internal standard (200 ng/ml) ([Tanner et al., 2019]). The mixture was vortexed vigorously for 1 min, and 5 µL of the supernatant were injected onto the analytical column following centrifugation (5,590 g for 5 min). Gradient elution was carried out using a Gemini NX-C18 analytical column (5 μm, 2.1 mm × 50 mm). The aqueous mobile phase consisted of 5 mm ammonium acetate with 0.1% acetic acid in deionised water, while the organic phase consisted of 0.1% acetic acid in acetonitrile. A Shimadzu HPLC and reverse phase Gemini NX-C18 column coupled to an AB Sciex 3200 Q TRAP MS was operated at unit resolution in the multiple reaction monitoring (MRM) mode. […] The calibration standards ranged from 2 ng/mL to 3,000 ng/mL for RMB005, and 2 ng/mL to 4,000 ng/mL for RMB059, −060 and DQ. Drug concentration versus time plots for each compound were used to determine maximal drug concentration C max, time T max to reach C max, elimination half-life t 1/2 and the area under the concentration-time curve from time zero to infinity, AUC0-inf. From these values the following PK parameters—clearance CL, volume of distribution (Vd) and oral bioavailability (BA) were determined using the non-compartmental analysis Microsoft Excel Add-In PKSolver ([Zhang et al., 2010]).

[2] = In vivo pharmacokinetics, oral administration; parameters: species or system C57BL/6 mice; conditions: DQ quantified in whole blood after po 20 mg/kg of the O-carbamate, mice; for AUC0-∞ of DQ / Cmax: 20 mg/kg; for Cmax: read-out: Cmax of DQ
Method: Healthy C57BL/6 mice each weighing approximately 25 g were maintained at the University of Cape Town animal facility. Mice were housed in 27 × 21 × 28 cm cages (n = 3) under controlled environmental conditions at 22 ± 2°C, humidity of 55 ± 15% and a 12-hour light/dark cycle. Food and water were available ad libitum. Mice were acclimatised to the experimental environment for 4–5 days prior to initiating the experiments. RMB005, −059 and −060 were prepared in an aqueous solution of HPMC containing 0.2% Tween 80. The weighed compound was sonicated and vortexed to obtain a homogenous suspension. Oral dosing of 20 mg/kg was achieved via oral gavage. The total volume per administration was 200 μL. Blood samples were collected post-dose in lithium heparin microvials via tail bleeding at predetermined intervals at 0.5, 1, 3, 5, 8, 10, and 24 h. Samples were gently vortexed and stored at −80°C until analysis. A quantitative LC-MS/MS assay was used to determine whole-blood concentrations of RMB005, −059 and −060. Whole blood samples (20 μL) were treated with 100 μL ice cold acetonitrile containing the compound RMB073 used previously for determination of whole blood concentrations in analysis of TB-active compounds, as internal standard (200 ng/ml) ([Tanner et al., 2019]). The mixture was vortexed vigorously for 1 min, and 5 µL of the supernatant were injected onto the analytical column following centrifugation (5,590 g for 5 min). Gradient elution was carried out using a Gemini NX-C18 analytical column (5 μm, 2.1 mm × 50 mm). The aqueous mobile phase consisted of 5 mm ammonium acetate with 0.1% acetic acid in deionised water, while the organic phase consisted of 0.1% acetic acid in acetonitrile. A Shimadzu HPLC and reverse phase Gemini NX-C18 column coupled to an AB Sciex 3200 Q TRAP MS was operated at unit resolution in the multiple reaction monitoring (MRM) mode. […] The calibration standards ranged from 2 ng/mL to 3,000 ng/mL for RMB005, and 2 ng/mL to 4,000 ng/mL for RMB059, −060 and DQ. Drug concentration versus time plots for each compound were used to determine maximal drug concentration C max, time T max to reach C max, elimination half-life t 1/2 and the area under the concentration-time curve from time zero to infinity, AUC0-inf. From these values the following PK parameters—clearance CL, volume of distribution (Vd) and oral bioavailability (BA) were determined using the non-compartmental analysis Microsoft Excel Add-In PKSolver ([Zhang et al., 2010]).

## CCCCCCCCCCOc1cc2c(O)c(C(=O)OCC)cnc2cc1OCC [DQ from RMB060]
[1]
  t1/2 of DQ: 4.66 ± 1.16 h
  CL of DQ: 21.50 ± 3.38 mL/min/kg
  Vd of DQ: 8.88 ± 2.87 L/kg
[2]
  Tmax of DQ: 1.67 ± 0.67 h
  AUC0-∞ of DQ: 63 ± 9 µmol·min/L
  Cmax: 110 ± 10 nM

## CCCCCCCCCCOc1cc2c(O)c(C(=O)OCC)cnc2cc1OCC [DQ from RMB059]
[1]
  t1/2 of DQ: 4.79 ± 1.66 h
  CL of DQ: 19.40 ± 3.14 mL/min/kg
  Vd of DQ: 8.00 ± 2.96 L/kg
[2]
  Tmax of DQ: 1.67 ± 0.67 h
  AUC0-∞ of DQ: 101 ± 44 µmol·min/L
  Cmax: 230 ± 50 nM
